Test results from patent US10391070B2, “Compositions and methods for treating neurological diseases or injury” (MUSC FOUNDATION FOR RESEARCH DEVELOPMENT, priority 2012, dated 2019).

Tests used:
[1] = test system: HT22 cells; assay: t-BuOOH toxicity protection (MTS cell viability); assay type: cell-based, mouse; conditions: HT22, 50 μM t-BuOOH
Experimental: Cell viability was assessed by the ability of the viable cells to metabolize 3-(4,5-dimethylthiazol-2-yl)-5-(3-carboxymethoxyphenyl)-2(4-sulfophenyl)2-H-tetrazolium, inner salt (MTS), as described previously (Cory et al., 1991). The metabolism of tetrazolium salts is often used to measure cellular proliferation, but in the system used here, it has been previously shown to correlate well with cell viability as determined by trypan blue exclusion and colony-forming assays (Davis and Maher, 1994). Briefly, HT-22 cells were seeded onto 96-well plates at 5.0×10^3 cells per well in 75 μL of medium and maintained at 37° C. in 5% CO2 overnight prior to the initiation of experimental treatments. For glutamate toxicity testing, cells were subsequently treated with 25 μL of medium containing glutamate (monosodium glutamate, Sigma, 1 M stock concentration in media, to achieve a final concentration of 10 mM) plus inhibitors (stock in DMSO) and maintained at 37° C. in 5% CO2. For t-BuOOH toxicity testing, cells were subsequently treated with 25 μL of medium containing t-BuOOH (Sigma, 10 mM stock concentration, to achieve a final concentration of 50 μM) plus inhibitors (stock in DMSO) and maintained at 37° C. in 5% CO2 for 3 hours, after which the media was removed, cells washed gently with HBSS, the media replaced with standard culture media, and the cells returned to incubation at 37° C. in 5% CO2. For both glutamate and t-BuOOH treatments, 10 μl of MTS solution was added to each well 24 hrs after initial treatment, and the cells were maintained in growth medium for 2 h at 37° C. Absorbance at 490 nm was subsequently measured by a SpectraMax 190 plate reader (Molecular Devices). The growth medium without cells in the presence of MTS solution was used as solution background and untreated cells were considered the controls. Cell viability was calculated as a percentage compared with untreated controls. EC50 determinations were based on 12-point titrations using GraphPad Prism, and each experiment was repeated at least four times. Morphology of HT22 cells following treatments was determined by phase-contrast microscopy. Digital images of cells grown on cell culture plates were captured at 10× magnification.
In light of the findings that the protection against glutamate induced cell death provided by VK2, 2q, and 2j, are at least partially mediated by the attenuation of the increased production of endogenous ROS, the inventors also examined the effects of these compounds on tert-butylhydroperoxide (t-BuOOH) induced cell death. t-BuOOH is a short chain analog of the lipid hydroperoxides formed from peroxidation reactions during oxidative stress that is cytotoxic to cells (Lemasters and Nieminen, 1997). […] It is well documented that cells undergo rapid and extensive fragmentation in the early stages of cell death (Bossy-Wetzel et al., 2003; Frank et al., 2001; Breckenridge et al., 2008; Jagasia et al., 2005; Lee et al., 2004). Recent studies have shown that mitochondrial fragmentation is regulated by the translocation of dynamin-related protein 1 (Drp1) from the cytosol to the mitochondria, where it assembles to form spirals at division sites (Smirnova et al., 2001). Although the exact molecular mechanism is still not well studied, the activity of Drp1 is regulated by the phosphorylation and dephosphorylation of specific serine residues by protein kinases and phosphatases such as calcineurin and the PGAM5 (Wang et al., 2012; Chang et al., 2007). […]

[2] = Mouse neurotoxicity (rotorod); assay type: in vivo; conditions: mice, 100 mg/kg i.p.
Experimental: Using a 96-well plate, one zebrafish larva (7 dpf) was placed in each well in 100 μL of tank water. 100 μL of each compound was then added to each well for 12 animals (one row) for a final volume of 200 μL. One row of zebrafish larvae was used as DMSO only controls. […] Toxicity was also measured in the mouse model by the NIH Anticonvulsant Screening Program at the National Institute of Neurological Disorders and Stroke (Stables and Kupferberg, 1997), according to the established NIH experimental procedures. Compounds were delivered into mice by intraperitoneal (i.p.) injection at a dose of 100 mg/kg in sterile 5% DMSO, 95% Neobee (Josey et al., 2013). Acute toxicity was assessed by monitoring the animals for impaired neuromuscular function by placing treated mice on a rod rotating at 6 rpm. […].

[3] = test system: HO-1; assay: qRT-PCR of antioxidant response gene HO-1; assay type: cell-based, mouse; conditions: HT22, 10 mM glutamate 16 hrs, relative to glutamate only
Experimental: HT22 cells were seeded onto cell culture treated 6-well plates at 3.0×10^5 cells per well in 2 mL of medium and maintained at 37° C. in 5% CO2 overnight prior to the initiation of experimental treatments. Cells were subsequently treated with 1 mL of medium containing glutamate (monosodium glutamate, Sigma-Aldritch, 1 M stock concentration in media, to achieve a final concentration of 10 mM) plus inhibitors (stock in DMSO) and maintained at 37° C. in 5% CO2. After 16 hrs, the media was collected and the cells harvested by trypsanization. After centrifugation, pelleted cells were washed with cold Hanks' Balanced Salt Solution (HBSS Ca^2+/Mg^2+ Free; Invitrogen; KCl 5.33 mM, KH2PO4 0.441 mM, NaHCO3 4.17 mM, NaCl 137.93 mM, Na2HPO4 0.338 mM, D-Glucose 5.56 mM), qRT-PCR was used to detect HO-1, NQO-1, and PGAM5 mRNAs in the HT22 cells. […] Therefore β2-microglobulin was used as a reference gene (Barrionuevo and Burggren, 1999). HT22 cells were cultured as described for 16 hrs. Total RNAs were extracted using the RNEasy kit (Qiagen), and transcripts of interest were amplified by PCR using the 1-step Syber Green qRT-PCR kit (Quanta) and the following specific primers (Harvard PrimerBank; Integrated DNA Technologies): HO-1, 5′-[…]-3′ (SEQ ID NO:1) and 5′-[…]-3′ (SEQ ID NO:2); PGAM5, 5′-[…]-3′ (SEQ ID NO:3) and 5′-[…]-3′ (SEQ ID NO:4); NQO-1, 5′-[…]-3′ (SEQ ID NO:5) and 5′-[…]-3′ (SEQ ID NO:6); and β2-microglobulin, 5′-[…]-3′ (SEQ ID NO:7) and 5′-[…]-3′ (SEQ ID NO:8). Linearity of the primers was verified before use, and fold changes were calculated as previously described using the Livak method (Barrionuevo and Burggren, 1999).

Compound | protection from t-BuOOH induced cell death [1] | animals displaying toxic effects/animals tested, 0.25 hr [2] | animals displaying toxic effects/animals tested, 0.5 hr [2] | animals displaying toxic effects/animals tested, 1.0 hr [2] | animals displaying toxic effects/animals tested, 2.0 hr [2] | animals displaying toxic effects/animals tested, 4.0 hr [2] | HO-1 gene expression [3]
O=C1C=C(NCc2ccccc2)C(=O)c2ccccc21 [Compound 2j, 2-(benzylamino)naphthalene-1,4-dione] | capable of protecting HT22 cells from t-BuOOH | 0/12 | 0/12 | 0/12 | 0/12 | 0/12 | significantly decreased HO-1 expression
C#CCNC1=CC(=O)c2ccccc2C1=O [Compound 2h, 2-(prop-2-yn-1-ylamino)naphthalene-1,4-dione] |  | 0/12 | 1/12 | 0/12 | 0/12 | 0/12 | 
menaquinones [VK2, reference compound] | capable of protecting HT22 cells from t-BuOOH |  |  |  |  |  | significantly decreased HO-1 expression
O=C1C=C(NCc2cccc(Cl)c2)C(=O)c2ccccc21 [Compound 2q, 2-((3-chlorobenzyl)amino)naphthalene-1,4-dione] | capable of protecting HT22 cells from t-BuOOH | 0/12 | 0/12 | 0/12 | 0/12 | 0/12 | significantly decreased HO-1 expression
